# Source: US8110547B2, “Compositions for buccal delivery of parathyroid hormone” (Emisphere Technologies, Inc., priority 2005, dated 2012)
# Like-named read-outs stand apart in the source and are kept apart here.
# Tests used:
# [1] = Serum PTH pharmacokinetics after oral and buccal administration to rats; format: in vivo, Male Sprague Dawley rats; conditions: rat, 0.2 mg/kg PTH with 200 mg/kg monosodium 4-MOAC; for AUC(0-inf) / AUC(0-t) / Cmax / Tmax: male, Sprague Dawley, serum, 0.2 mg/kg
# Method: A stock solution of human recombinant PTH (1-34) was prepared by dissolving hPTH (1-34) (Eli Lilly, Indianapolis, Ind.) in deionized water to a concentration of 4 mg/ml. A stock solution of delivery agent was prepared by dissolving the delivery agent in deionized water. The pH of the resulting delivery agent solution was adjusted to between 7.5 and 8.5. A liquid buccal dosage form was prepared by mixing the PTH stock solution with the delivery agent stock solution immediately prior to dosing. For the present example, four dosage forms were prepared as described below.
# The dosage forms were administered to Male Sprague Dawley rats, ranging in weight from about 250 g to about […]. Each rat was anesthesized with 2% isofiurane in pure oxygen during the whole experiment. The femoral artery was cannulated for blood sampling. The esophagus was ligated to prevent wallowing of the dosing solution. The trachea was intubated and the rat was provided with a constant flow of 2% isofiurane in oxygen.
# The liquid dosage form was administered by inserting a T-shaped dosing tool into the mouth of the rat. The center of the dosing tool was placed under the tongue and the liquid dosage form (approximately […] body weight) was administered by syringe through the dosing tool, such that the dosage was distributed evenly throughout the buccal area. Following administration, the mouth was glued shut. Blood samples were drawn at predetermined periods from the femoral artery and assayed for PTH. The liquid dosage solution was allowed to remain in the buccal area for 90 minutes (e.g., the dosing duration). After 90 minutes the liquid dosage solution was removed from the buccal area by syringe.
# The concentration of PTH was determined using a PTH (1-34) immunradiometric assay kit (Immutopics, San Clemente, Calif.). Samples were prepared by storage for 20 minutes between 2° C. and 8° C., followed by centrifugation at 10,000 G for 10 minutes to obtain serum. The serum concentration of PTH was than determined using a PTH (1-34) immunradiometric assay kit.
# A liquid dosage form was prepared as described above wherein the dosage amount of monosodium 4-MOAC was 200 mg/kg and the dosage amount of PTH was 0.2 mg/kg. The dosage form was administered buccally as described above. Oral administration was carried out by anesthetizing the rat with a mixture of ketamine (44 mg/kg) and thorazine (1.5 mg/kg), followed by administration of the oral dosage by a gavaging trocar. The dosing duration for buccal administration was 5 and 60 minutes respectively. Blood samples were drawn from the rat as described above and the serum concentration of PTH was determined as described previously.
# [2] = Pharmacokinetics after buccal, oral and subcutaneous administration of PTH to dogs; format: in vivo; conditions: dog; for AUC(0-t) / Cmax / Tmax / F rel: in vivo; for F rel: bioavailability relative to subcutaneous administration, read-out: AUC0−>t BA (%)
# Method: The animal was moderately sedated using 0.4-0.8 mg/kg midazolam (IM) and 0.03-0.04 mg/kg medetomidine IV or IM in order to minimize the risk of the animal swallowing the test material. The level of sedation was continuously monitored and respiratory rate and general activity level was noted. Once adequately sedated, the dog was moved to a flat surface and an intravenous catheter was placed in the cephalic vein. For dose application, the dog was placed on its side with its head and jaw angled to maximally hold the test material in the mouth.
# For an aqueous dosing solution, a syringe filled with the dosing solution (up to 1.5 ml) was placed sublingually and infused slowly up to 0.75 ml in an equal amount at the right and left space under the tongue of the dog. For sublingual tablet, the tablets were placed under the tongue and up to 1.5 ml of saline was administered to facilitate the sublingual dissolution. On one hour post-administration, any remaining formulation was removed by syringe aspiration and the area was rinsed once with saline solution and the saline solution that was then removed by a syringe aspiration.
# Once the animal recovered from the sedatives, restraint-acclimated animals was restrained using a sling for the duration of the experiment. Blood samples were collected at specific time-points, i.e., 0, 0.25, 0.5, 1, 1.5, 2, 2.5 and up to 4 hours.
# For comparison of the dosing route with intraoral delivery, an oral tablet dosing study was followed. The equivalent dose of drug and carrier was prepared to be the oral formulation of tablets that were gavaged, and 1 ml of water was administered into the gavaging tubing.
# The final two columns in Table 2 show the relative bioavailability to subcutaneous administration by buccal and oral administrations of PTH to dog, and the respective coefficient of variations.
# [3] = buccal 5 min dosing duration versus oral
# [4] = buccal 60 min dosing duration versus oral
# [5] = buccal (sublingual), formulation removed one hour post-administration
compound,measurement,setting,value
"CC[C@H](C)[C@H](NC(=O)[C@H](CCC(=O)O)NC(=O)[C@H](CO)NC(=O)[C@@H](NC(=O)[C@@H](N)CO)C(C)C)C(=O)N[C@@H](CCC(N)=O)C(=O)N[C@@H](CC(C)C)C(=O)N[C@@H](CCSC)C(=O)N[C@@H](Cc1cnc[nH]1)C(=O)N[C@@H](CC(N)=O)C(=O)N[C@@H](CC(C)C)C(=O)NCC(=O)N[C@@H](CCCCN)C(=O)N[C@@H](Cc1cnc[nH]1)C(=O)N[C@@H](CC(C)C)C(=O)N[C@@H](CC(N)=O)C(=O)N[C@@H](CO)C(=O)N[C@@H](CCSC)C(=O)N[C@@H](CCC(=O)O)C(=O)N[C@@H](CCCN=C(N)N)C(=O)N[C@H](C(=O)N[C@@H](CCC(=O)O)C(=O)N[C@@H](Cc1c[nH]c2ccccc12)C(=O)N[C@@H](CC(C)C)C(=O)N[C@@H](CCCN=C(N)N)C(=O)N[C@@H](CCCCN)C(=O)N[C@@H](CCCCN)C(=O)N[C@@H](CC(C)C)C(=O)N[C@@H](CCC(N)=O)C(=O)N[C@@H](CC(=O)O)C(=O)N[C@H](C(=O)N[C@@H](Cc1cnc[nH]1)C(=O)N[C@@H](CC(N)=O)C(=O)N[C@@H](Cc1ccccc1)C(=O)O)C(C)C)C(C)C [PTH, human recombinant PTH (1-34)]",AUC(0-inf),"[1]; buccal, 5 min dosing duration",2.8 ng·h/mL
same,AUC(0-t),"[1]; buccal, 5 min dosing duration",0.975 ng·h/mL
same,Cmax,"[1]; buccal, 5 min dosing duration",1.7 ng/mL
same,Tmax,"[1]; buccal, 5 min dosing duration",5 min
same,AUC(0-inf),"[1]; buccal, 60 min dosing duration",3.44 ng·h/mL
same,AUC(0-t),"[1]; buccal, 60 min dosing duration",1.29 ng·h/mL
same,Cmax,"[1]; buccal, 60 min dosing duration",1.82 ng/mL
same,Tmax,"[1]; buccal, 60 min dosing duration",15 min
same,AUC(0-inf),"[1]; po, oral gavage",2.62 ng·h/mL
same,AUC(0-t),"[1]; po, oral gavage",10.4 ng·h/mL
same,Cmax,"[1]; po, oral gavage",1.43 ng/mL
same,Tmax,"[1]; po, oral gavage",15 min
same,Buccal:Oral AUC0−>t Ratio,[1]; [3],0.94
same,Buccal:Oral AUC0−>∞ Ratio,[1]; [3],1.1
same,Buccal:Oral AUC0−>t Ratio,[1]; [4],1.2
same,Buccal:Oral AUC0−>∞ Ratio,[1]; [4],1.3
same,AUC0−>t BA (%),[2]; subcutaneous (reference route),100%
same,AUC(0-t),"[2]; sc, subcutaneous",8.47 ng·h/mL
same,Cmax,"[2]; sc, subcutaneous",6.39 ± 1.97 ng/mL
same,Tmax,"[2]; sc, subcutaneous",26 min
same,AUC(0-t),[2]; [5],2.82 ng·h/mL
same,Cmax,[2]; [5],3.35 ± 2.65 ng/mL
same,Tmax,[2]; [5],62 min
same,F rel,[2]; buccal,3.3%
same,AUC(0-t),[2]; oral tablets gavaged,0.41 ng·h/mL
same,Cmax,[2]; oral tablets gavaged,0.632 ± 0.568 ng/mL
same,Tmax,[2]; oral tablets gavaged,23 min
same,F rel,[2]; oral,4.8%
